Source: PubChem BioAssay AID1845196 (Molecular Pharmacology Branch, DTP, NCI, 2023)
Where “and” joins values, the source holds several entries; their conditions need not be identical. Equal values may be shown once.

System: 292921-168-R tumor spheroid viability
Experiment: Anticancer human tumor 292921-168-R patient-derived pancreatic carcinoma cell line growth inhibition
Settings: spheroids with HUVEC and MSC; for viability, T/C: stronger effect = lower value
Excerpt: Multicellular complex tumor spheroid response to DNA repair inhibitors in combination with DNA-damaging drugs
This study explores the anticancer activities of DNA-damaging drugs and inhibitors of DNA damage repair, both as single agents and in combinations. Complex tumor spheroids comprised of malignant cells, endothelial cells and mesenchymal stem cells served as an in vitro model for human solid tumors. This model system incorporates physiologically relevant features and patient-derived or established malignant cell lines with clinically relevant genetic alterations from many tumor types. Twenty-six patient-derived or established malignant cell lines were evaluated representing sarcoma, melanoma, small cell lung cancer (SCLC), non-small cell lung cancer (NSCLC), as well as bladder, ovarian and pancreatic cancers. The concentration ranges selected for each drug and investigational agent were based upon clinically achievable concentrations if the clinical Cmax of the agent was known.
Compounds. The drugs and compounds olaparib (NSC753686), talazoparib (NSC767125), berzosertib (NSC777718), elimusertib (NSC800525), nedisertib (NSC802822), VX-984 (NSC792969), AZD-1390 (NSC803789), temozolomide (NSC362856), topotecan (NSC609699), trabectedin (NSC813783), staurosporine (NSC755774), and gemcitabine (NSC613327) were obtained from the National Cancer Institute (NCI) Developmental Therapeutics Program Chemical Repository. The FDA-approved anticancer drug set is available from the Developmental Therapeutics Program at https://dtp.cancer.gov/organization/dscb/obtaining/available_plates.htm. […] The stock solutions were prepared in dimethyl sulfoxide (DMSO, Sigma-Aldrich, St. Louis, MO, cat. D2650) at 400-fold the tested concentration and stored at -70 degrees C. Prior to their use, the stock solutions were diluted in fresh medium and the final DMSO concentration in the assay was 0.25% (v/v). All drugs and investigational agents were tested over a range starting from a high concentration at or near the clinical Cmax and decreasing in half-log increments. If the clinical Cmax for an agent had not been determined, the highest concentration tested was 10 microM.
Cell Lines. The patient-derived cancer cell (PDC) lines: 156681-154-R-J1-PDC, 283228-195-R-J1-PDC, 287954-098-R-J1-PDC, 292921-168-R-J2-PDC, 349418-098-R-PDC, 425362-245-T-J1-PDC, 556581-035-R-J1-PDC, and BL0293-F563-PDC were received from the NCI Patient-Derived Models Repository (PDMR, https://pdmr.cancer.gov). The established cell lines HS-SY-2 (RRID:CVCL_8719), MPNST, and SYO-1 (RRID:CVCL_7146) were obtained from the Sloan Kettering Institute. The alveolar soft parts sarcoma cell line ASPS-1 (RRID:CVCL_S738) was established at the NCI and grown from internal seed stocks. The following established cell lines were purchased from the American Type Culture Collection (ATCC, Manassas, VA): G-401 (ATCC, cat. CRL-1441, RRID:CVCL_0270), SW982 (ATCC, cat. HTB-93, RRID:CVCL_1734), VA-ES-BJ (ATCC, cat. CRL-2138, RRID:CVCL_1785), NCI-H719 (ATCC, cat. CRL-5837, RRID:CVCL_1582), NCI-H196 (ATCC, cat. CRL-5823, RRID:CVCL_1509), NCI-H841 (ATCC, cat. CRL-5845, RRID:CVCL_1595), NCI-H1618 (ATCC, cat. CRL-5879, RRID:CVCL_1480), NCI-H1876 (ATCC, cat. CRL-5902, RRID:CVCL_1503), DMS 114 (ATCC, cat. CRL-2066; RRID:CVCL_1174), NCI-H211 (ATCC, cat. CRL-5824; RRID:CVCL_1529), and SW 1271 (ATCC, cat. CRL-2177, RRID:CVCL_1716). The small cell lung cancer cell line COR-L88 was purchased from Sigma-Aldrich (cat. 92031917-1VL, RRID:CVCL_1141). The non-small cell lung cancer cell lines NCI-H226 (RRID:CVCL_1544) and NCI-H322M (RRID:CVCL_1557) were established at the NCI and grown from internal seed stocks. Pooled donor human umbilical vein endothelial cells (HUVEC, Lonza, cat. CC-2519) and human mesenchymal stem cells (hMSC, Lonza, cat. PT-2501) were purchased from Lonza (Walkersville, MD).
Cell Culture. All cells were maintained in an incubator at 37 degrees C and 5% CO2 with 95% humidity. […]

[1] = compound alone, run of 10/17/2019
[2] = compound alone, run of 10/25/2019
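Note: spheroids exposed to compounds for 7 days.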

In the case of `CC(C)n1c(=O)n(C)c2cnc3cc(F)c(-c4ccc(OCCCN5CCCCC5)nc4)cc3c21`, the viability, T/C (compound 0.0316 µM) is reported as 93.7% and 95.7% and 101%, the viability, T/C (compound 0.1 µM) is reported as 92.2% and 101% and 92.6% and the viability, T/C (compound 0.316 µM) is reported as 92.8% and 93.5% and 87.8%. The viability, T/C (compound 1 µM) was 92.4% and 91.1% and 84%, the viability, T/C (compound 3.16 µM) was 70.3% and 70.5% and 69.1% and the viability, T/C (compound 10 µM) was 29.2% and 26.8% and 32.8%. For the same molecule, the IC50 (curve of compound) was 5.58 µM and 5.44 µM and 5.67 µM.

In the case of `CC1COCCN1c1cc(-c2ccnn2C)c2ccnc(-c3ccn[nH]3)c2n1` (stereo not drawn), the viability, T/C (compound 0.0316 µM) is reported as 26.3% and 36.1% and 39.6%, the viability, T/C (compound 0.1 µM) is reported as 14.2% and 20.1% and 22% and the viability, T/C (compound 0.316 µM) is reported as 11.9% and 13.8% and 14.4%. The viability, T/C (compound 1 µM) was 13.8% and 13.7% (2×), the viability, T/C (compound 3.16 µM) was 14.8% and 14.5% and 14.9% and the viability, T/C (compound 10 µM) was 16.8% and 16% and 16.7%. It also gave an IC50 (curve of compound) of less than 0.0316 µM.

`CC[C@@]1(O)C(=O)OCc2c1cc1n(c2=O)Cc2cc3c(CN(C)C)c(O)ccc3nc2-1` was tested, and the viability, T/C (compound 0.003 µM) was 94.9% [middle of 10 runs], the viability, T/C (compound 0.00949 µM) was 77.4% [middle of 10 runs] and the viability, T/C (compound 0.03 µM) was 36.8% [middle of 10 runs]. The viability, T/C (compound 0.0949 µM) was 12.2% [middle of 10 runs], the viability, T/C (compound 0.3 µM) was 4.45% [middle of 10 runs] and the IC50 [1] was 19.4 nM [middle of 5 runs]. The IC50 [2] was 22.6 nM [middle of 4 runs].

With `CNCc1ccc(-c2cc(-c3nc(-c4ccc(S(=O)(=O)C(C)C)cc4)cnc3N)on2)cc1` the viability, T/C (compound 0.00949 µM) was 101% and 106% and 104%, the viability, T/C (compound 0.03 µM) was 101% and 94.1% and 95.1% and the viability, T/C (compound 0.0949 µM) was 79.2% and 80% and 91.3%. The viability, T/C (compound 0.3 µM) was 49.7% and 37.8% and 38.7%, the viability, T/C (compound 0.949 µM) was 26.5% and 25.3% and 20.8% and the viability, T/C (compound 3 µM) was 11.9% (2×) and 13.2%. For the same molecule, the IC50 (curve of compound) was 0.307 µM and 0.226 µM and 0.236 µM.

With `COc1cc(C)[nH]c(=O)c1CN1CCc2c(Cl)cc(C(OC)C3COC3)c(Cl)c2C1=O` (stereo not drawn) the viability, T/C (compound 0.0316 µM) was 108% and 97.3% and 113%, the viability, T/C (compound 0.1 µM) was 112% and 106% and 113% and the viability, T/C (compound 0.316 µM) was 115% and 92.9% and 89.7%. For the same molecule, the viability, T/C (compound 1 µM) was 109% and 95.4% and 97.2%, the viability, T/C (compound 3.16 µM) was 90.3% and 89.2% and 90.4% and the viability, T/C (compound 10 µM) was 101% and 89.8% and 75.1%. It also gave an IC50 (curve of compound) greater than 10 µM.

`COc1cc2c(cc1O)CCNC21CSC2c3c(OC(C)=O)c(C)c4c(c3C(COC1=O)N1C(O)C3Cc5cc(C)c(OC)c(O)c5C(C21)N3C)OCO4` (stereo not drawn) was tested, and the viability, T/C (compound 94.9 pM) was 101% [middle of 10 runs], the viability, T/C (compound 0.0003 µM) was 41.8% [middle of 10 runs] and the viability, T/C (compound 0.000949 µM) was 3.57% [middle of 10 runs]. The viability, T/C (compound 0.003 µM) was 0.16% [middle of 5 runs] and the IC50 [2] was 0.259 nM [middle of 10 runs].

`COc1ccc([C@@H](O)c2cc(-c3ncnc4cc(N5CCOCC5)ccc34)c(F)cc2Cl)nn1` was tested, and the viability, T/C (compound 0.0316 µM) was 103% and 105% and 96.1%, the viability, T/C (compound 0.1 µM) was 99.4% and 97.3% and 101% and the viability, T/C (compound 0.316 µM) was 91.3% and 87.4% and 87.8%. For the same molecule, the viability, T/C (compound 1 µM) was 57.4% and 56.3% and 64.4%, the viability, T/C (compound 3.16 µM) was 37% and 34.3% and 35.8% and the viability, T/C (compound 10 µM) was 20.6% and 19% and 21%. The IC50 (curve of compound) was 1.57 µM and 1.45 µM and 1.78 µM.

For `Cc1cc(C)c(CNC(=O)c2cc(-c3ccc(CN4CCOCC4)cc3)cc3c2cnn3C2CCCC2)c(=O)[nH]1`, the viability, T/C (compound 0.0316 µM) was 103% and 102% and 97.1%, the viability, T/C (compound 0.1 µM) was 101% and 104% and 88.9% and the viability, T/C (compound 0.316 µM) was 110% and 97.8% and 101%. For the same molecule, the viability, T/C (compound 1 µM) was 106% and 103% and 98.5%, the viability, T/C (compound 3.16 µM) was 102% and 88.8% and 103% and the viability, T/C (compound 10 µM) was 75.6% and 68.8% and 63.9%. For the same molecule, the IC50 (curve of compound) was greater than 10 µM.

With `Cc1sc2c(c1C)C(c1ccc(Cl)cc1)=NC(CC(=O)Nc1ccc(O)cc1)c1nnc(C)n1-2` (stereo not drawn) the viability, T/C (compound 0.00949 µM) was 119% (2×) and 110%, the viability, T/C (compound 0.03 µM) was 124% and 90% and 120% and the viability, T/C (compound 0.0949 µM) was 132% and 104% and 113%. The viability, T/C (compound 0.3 µM) was 114% and 102% and 124%, the viability, T/C (compound 0.949 µM) was 92.9% and 71.4% and 81.5% and the viability, T/C (compound 3 µM) was 49.3% and 34.5% and 57.9%. The IC50 (curve of compound) was 2.95 µM and 1.85 µM and > 3 µM.

In the case of `Cn1ncnc1[C@H]1c2n[nH]c(=O)c3cc(F)cc(c23)N[C@@H]1c1ccc(F)cc1`, the viability, T/C (compound 0.00949 µM) is reported as 101% and 87.5% and 95.8%, the viability, T/C (compound 0.03 µM) is reported as 93.7% and 83.1% and 93% and the viability, T/C (compound 0.0949 µM) is reported as 87.9% and 81.8% and 80.5%. The viability, T/C (compound 0.3 µM) was 68.6% and 62.7% and 63.2%, the viability, T/C (compound 0.949 µM) was 41.3% and 36.9% and 46% and the viability, T/C (compound 3 µM) was 14% (2×) and 11.2%. For the same molecule, the IC50 (curve of compound) was 0.661 µM and 0.537 µM and 0.692 µM.

`Cn1nnc2c(C(N)=O)ncn2c1=O` was tested, and the viability, T/C (compound 1 µM) was 94.3% [middle of 10 runs], the viability, T/C (compound 3.16 µM) was 95.5% [middle of 10 runs] and the viability, T/C (compound 10 µM) was 94.8% [middle of 10 runs]. The viability, T/C (compound 31.6 µM) was 90.8% [middle of 10 runs], the viability, T/C (compound 100 µM) was 85.8% [middle of 10 runs] and the IC50 [1] was greater than 100 µM.

`O=C(c1cc(Cc2n[nH]c(=O)c3ccccc23)ccc1F)N1CCN(C(=O)C2CC2)CC1` was tested, and the viability, T/C (compound 0.0949 µM) was 91.5% and 96.1% and 103%, the viability, T/C (compound 0.3 µM) was 102% and 99.1% and 96% and the viability, T/C (compound 0.949 µM) was 91.7% and 100% and 98.5%. For the same molecule, the viability, T/C (compound 3 µM) was 87.8% and 89.6% and 92.7%, the viability, T/C (compound 9.49 µM) was 66.9% and 61.2% and 64.2% and the viability, T/C (compound 30 µM) was 39.4% and 35.8% and 35.6%. For the same molecule, the IC50 (curve of compound) was 19.2 µM and 15.7 µM and 16.8 µM.

`[2H]c1nc(C)nc([2H])c1-c1cc(NC[C@@H](C)c2cccc3c(C(=O)NC)ccnc23)ncn1` was tested, and the viability, T/C (compound 0.0316 µM) was 106% and 103% (2×), the viability, T/C (compound 0.1 µM) was 104% and 93.4% and 89.7% and the viability, T/C (compound 0.316 µM) was 104% and 100% and 97.8%. The viability, T/C (compound 1 µM) was 115% and 99.2% and 93.3%, the viability, T/C (compound 3.16 µM) was 113% and 101% and 96.8% and the viability, T/C (compound 10 µM) was 95.7% and 91.2% and 95.8%. It also gave an IC50 (curve of compound) greater than 10 µM.
